Data published in patent publication US10537567B2, “Kinase inhibitors for treatment of disease” (BioAxone BioSciences, Inc., priority 2017, dated 2020).
Entries after “also recorded” stand apart in the source; their conditions may differ.

Key:
[1] = Penetration and distribution in ocular tissues after topical instillation (LC-MS); format: in vivo, Sprague Dawley rats; conditions: topical 5% solution of BA-1076, 20 minutes
Experimental: Adult Sprague Dawley rats (Charles River Laboratories) were used for this experiment. […] One g of tissue was homogenized in 1 mL of 1×PBS. Homogenates were precipitated by pipetting 200 μL of homogenate into a tube using aseptically cut off 1000 μL pipette tips to prevent clogging. Samples are further diluted with 100 μL PBS to aid in precipitation. 900 μL of cold methanol was added to each sample and samples were vortexed for 5 to 10 seconds. Samples were placed at 4° C. for 30 to 40 min and then centrifuged at 10,000 g for 15 min at 4° C. The supernatant is collected and stored at −80° C. until analyzed.
For the optic nerve sample, the concentration is shown per length of optic nerve (right y-axis). […] Therefore, drug is available in the retina and optic nerve for treating these tissues affected in glaucoma and other retinal diseases.
In FIG. 14 we examined the ability of metabolite to penetrate the ocular tissues of the eye after topical instillation of a 3% solution of metabolite. In comparison with FIG. 13, that also the metabolite has adequate penetration into ocular and CNS tissue. Of particular note is the penetration in the retina and presence in the optic nerve. All compounds were given topically as eye drops to the eye of adult Sprague Dawley rats. Twenty minutes later the indicated tissues were removed and the parent compound and active metabolite were analyzed by LC/MS.

[2] = system: GPCRs, transporters, ion channels, nuclear receptors, non-kinase enzymes; assay: Safety screen of 88 targets; parameters: species or system human; conditions: agonistic or antagonistic
Description: (§1) These targets include GPCRs, transporters, ion channels, nuclear receptors, non-kinase enzymes.

[3] = target: T1, serotonin transporter (SERT) (Homo sapiens, UniProt P31645); assay: Safety screen; format: biochemical; conditions: 10,000 nM API
T1 construct: purchased DiscoverX
T1 sequence (P31645 whole entry): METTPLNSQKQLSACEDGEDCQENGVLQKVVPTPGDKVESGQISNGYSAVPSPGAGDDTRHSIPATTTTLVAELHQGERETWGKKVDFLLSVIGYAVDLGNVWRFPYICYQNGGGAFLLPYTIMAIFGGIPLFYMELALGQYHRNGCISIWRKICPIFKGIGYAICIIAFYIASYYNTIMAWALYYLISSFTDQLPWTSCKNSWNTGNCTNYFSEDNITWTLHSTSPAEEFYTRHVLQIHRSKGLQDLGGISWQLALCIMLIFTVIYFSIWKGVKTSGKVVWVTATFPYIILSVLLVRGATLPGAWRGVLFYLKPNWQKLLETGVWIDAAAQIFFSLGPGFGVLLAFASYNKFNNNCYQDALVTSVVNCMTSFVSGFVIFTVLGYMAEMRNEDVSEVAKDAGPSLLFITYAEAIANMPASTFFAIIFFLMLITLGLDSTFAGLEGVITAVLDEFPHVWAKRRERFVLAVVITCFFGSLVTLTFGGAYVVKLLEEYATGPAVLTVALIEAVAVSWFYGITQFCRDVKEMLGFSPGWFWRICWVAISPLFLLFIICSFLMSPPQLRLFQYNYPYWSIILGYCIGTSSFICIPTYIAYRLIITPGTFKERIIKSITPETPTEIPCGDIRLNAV
Experimental: (§2) A 468-target kinome screen and a safety screen were carried out to examine the off-target profiles of different kinase inhibitors (DiscoverX, Freemont, Calif.). The kinome screen is a binding assay where API interference of kinase domain/substrate binding is assessed as percent of control. Less than 10% binding (or >90% binding inhibition) is most biologically relevant and considered as a ‘hit’. BA-2017 only had 7 off-target hits compared to BA-1049 and Netarsudil, which both had 11 hits (Table 1) (Studirvant et al. 2016 Bioorg Med Chem Lett. 26(10):2475-2480). […] Published data for Netarsudil were with 200 times less API. […] The NET activity likely helps to decrease IOP but might increase hyperemia, while the SERT activity might have long-term safety consequences (Costagliola et al. 2004 CNS drugs 18(8): p. 475-484).
as §1

[4] = target: T2, norepinephrine transporter (NET) (Homo sapiens, UniProt P23975); assay: Safety screen; format: biochemical; conditions: 10,000 nM API
T2 construct: purchased DiscoverX
T2 sequence (P23975 whole entry): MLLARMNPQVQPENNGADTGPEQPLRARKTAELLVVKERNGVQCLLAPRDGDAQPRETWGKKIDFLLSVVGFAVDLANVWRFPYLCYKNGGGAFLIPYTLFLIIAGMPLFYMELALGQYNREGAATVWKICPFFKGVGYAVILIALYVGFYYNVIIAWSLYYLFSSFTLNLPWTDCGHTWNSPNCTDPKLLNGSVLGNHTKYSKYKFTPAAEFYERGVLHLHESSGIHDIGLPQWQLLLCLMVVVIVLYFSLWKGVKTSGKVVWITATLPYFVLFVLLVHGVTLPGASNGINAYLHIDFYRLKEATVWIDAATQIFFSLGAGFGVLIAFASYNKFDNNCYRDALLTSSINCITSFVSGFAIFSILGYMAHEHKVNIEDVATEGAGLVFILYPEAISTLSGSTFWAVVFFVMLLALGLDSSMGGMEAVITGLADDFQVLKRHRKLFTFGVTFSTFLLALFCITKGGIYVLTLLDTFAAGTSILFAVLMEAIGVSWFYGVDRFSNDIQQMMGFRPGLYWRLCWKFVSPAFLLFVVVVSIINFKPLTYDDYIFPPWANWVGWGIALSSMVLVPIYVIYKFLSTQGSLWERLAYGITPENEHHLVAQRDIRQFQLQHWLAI
Experimental: as §2, §1

[5] = system: rat midbrain dopaminergic neurons; assay: MPP+ toxicity in cultured midbrain dopaminergic neurons; format: cell-based; conditions: 0.25-50 μM, 20 μM MPP+, 48 hours
Experimental: These in vitro experiments are conducted using primary cultures of embryonic rat midbrain dopaminergic neurons. MPP+ is known to cause the death of cultured midbrain dopaminergic neurons. Rho kinase and Abl kinase inhibitors are tested individually at varying concentrations for their ability to prevent MPP+-induced cell death.
Primary cultures of rat midbrain dopaminergic neurons are established from cells acutely isolated from the ventral midbrain of embryonic day 14 rats (Charles River; Wilmington, Mass.). The cells are plated in serum-free conditions (Neurobasal plus B-27 Supplements; Thermo-Fisher; Waltham, Mass.) onto glass coverslips coated with poly-ornithine and laminin as attachment factors. Cells are cultured overnight on the coated coverslips in a 37° C./5% CO2 tissue culture incubator prior to the initiation of the varying treatments.
On day 3 after plating, MPP+(Sigma Chemical; St. Louis, Mo.) is added to the medium at 20 μM final concentration. The cultures are allowed to continue for an additional 48 hours. At the end of the culture period, the cells are washed, and then fixed with 4% paraformaldehyde solution prior to permeabilization and blocking with 10% normal goat serum in PBS. […] Specimens are examined using fluorescence microscopy and the numbers of TH-positive neurons with non-pyknotic nuclei are counted in 6 to 8 high power fields per specimen.

human TM cells = assay: Fibronectin immunoblot in TGFβ-stimulated TM cells; format: cell-based; conditions: 2.5 ng/ml TGFβ, 0-100 μM, 24 hours
PKA = PKA (Homo sapiens, UniProt P17612); assay: Single dose inhibition assay of key AGC class kinases; format: biochemical; conditions: 10 μM API
Experimental: Molecular modeling and rational drug design were used to create and screen over 50 ROCK inhibitors. These ROCK inhibitors were screened for selectivity for ROCK2 and ability to promote neurite outgrowth. Several lead inhibitors came out of this screen and further screened for inhibition of key AGC class kinases by a single dose inhibition assay performed with 10 μM active pharmaceutical ingredient (API). The lead compound is chiral. […] They have different selectivity for ROCK2 (Table 2) and different off-target profiles (Table 1; FIG. 1).

Abl = Abl (Homo sapiens, UniProt P00519); assay: Second kinome screen; format: binding
Chain of Abl (P00519 whole entry): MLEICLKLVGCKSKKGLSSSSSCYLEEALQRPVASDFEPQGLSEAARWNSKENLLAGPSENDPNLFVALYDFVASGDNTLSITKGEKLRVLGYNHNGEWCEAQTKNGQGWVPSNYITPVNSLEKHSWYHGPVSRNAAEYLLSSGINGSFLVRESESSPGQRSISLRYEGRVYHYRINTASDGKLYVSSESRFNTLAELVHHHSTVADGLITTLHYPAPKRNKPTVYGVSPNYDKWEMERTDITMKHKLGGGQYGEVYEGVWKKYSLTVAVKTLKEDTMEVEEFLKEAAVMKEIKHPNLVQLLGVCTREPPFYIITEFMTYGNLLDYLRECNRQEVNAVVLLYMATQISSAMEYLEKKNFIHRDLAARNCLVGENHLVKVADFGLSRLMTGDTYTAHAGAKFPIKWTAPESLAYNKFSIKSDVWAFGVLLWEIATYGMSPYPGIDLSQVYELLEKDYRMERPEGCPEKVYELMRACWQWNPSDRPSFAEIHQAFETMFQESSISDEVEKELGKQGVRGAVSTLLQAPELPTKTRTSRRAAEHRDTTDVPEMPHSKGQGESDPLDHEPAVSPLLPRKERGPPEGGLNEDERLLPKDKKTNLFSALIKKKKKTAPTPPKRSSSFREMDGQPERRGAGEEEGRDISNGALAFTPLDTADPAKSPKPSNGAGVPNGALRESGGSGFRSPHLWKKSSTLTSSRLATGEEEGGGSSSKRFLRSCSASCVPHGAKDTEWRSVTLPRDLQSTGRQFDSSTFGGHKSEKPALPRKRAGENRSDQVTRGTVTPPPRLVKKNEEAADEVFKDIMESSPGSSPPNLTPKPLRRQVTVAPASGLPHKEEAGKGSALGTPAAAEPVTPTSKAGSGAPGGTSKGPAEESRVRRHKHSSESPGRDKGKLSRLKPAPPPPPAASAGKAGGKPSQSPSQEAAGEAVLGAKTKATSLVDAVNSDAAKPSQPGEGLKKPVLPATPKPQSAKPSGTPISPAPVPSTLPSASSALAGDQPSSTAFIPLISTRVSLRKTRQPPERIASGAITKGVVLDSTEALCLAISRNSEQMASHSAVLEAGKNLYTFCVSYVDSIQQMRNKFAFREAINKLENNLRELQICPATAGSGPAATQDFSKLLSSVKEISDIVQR
Description: In the kinome screen BA-2017 had fewer off-target hits (Table 1) than BA-1049. […] An interesting hit from the kinome screen was on Abl (Table 1), an oncogene that also regulates many cellular activities, including vascular leakage.

ROCK2 = ROCK2 (Homo sapiens, UniProt O75116); assay: IC50 determined at 10 μM ATP; format: biochemical; parameters: purchased Eurofins Testing (Dundee, Scotland, UK)
Chain of ROCK2 (O75116 whole entry): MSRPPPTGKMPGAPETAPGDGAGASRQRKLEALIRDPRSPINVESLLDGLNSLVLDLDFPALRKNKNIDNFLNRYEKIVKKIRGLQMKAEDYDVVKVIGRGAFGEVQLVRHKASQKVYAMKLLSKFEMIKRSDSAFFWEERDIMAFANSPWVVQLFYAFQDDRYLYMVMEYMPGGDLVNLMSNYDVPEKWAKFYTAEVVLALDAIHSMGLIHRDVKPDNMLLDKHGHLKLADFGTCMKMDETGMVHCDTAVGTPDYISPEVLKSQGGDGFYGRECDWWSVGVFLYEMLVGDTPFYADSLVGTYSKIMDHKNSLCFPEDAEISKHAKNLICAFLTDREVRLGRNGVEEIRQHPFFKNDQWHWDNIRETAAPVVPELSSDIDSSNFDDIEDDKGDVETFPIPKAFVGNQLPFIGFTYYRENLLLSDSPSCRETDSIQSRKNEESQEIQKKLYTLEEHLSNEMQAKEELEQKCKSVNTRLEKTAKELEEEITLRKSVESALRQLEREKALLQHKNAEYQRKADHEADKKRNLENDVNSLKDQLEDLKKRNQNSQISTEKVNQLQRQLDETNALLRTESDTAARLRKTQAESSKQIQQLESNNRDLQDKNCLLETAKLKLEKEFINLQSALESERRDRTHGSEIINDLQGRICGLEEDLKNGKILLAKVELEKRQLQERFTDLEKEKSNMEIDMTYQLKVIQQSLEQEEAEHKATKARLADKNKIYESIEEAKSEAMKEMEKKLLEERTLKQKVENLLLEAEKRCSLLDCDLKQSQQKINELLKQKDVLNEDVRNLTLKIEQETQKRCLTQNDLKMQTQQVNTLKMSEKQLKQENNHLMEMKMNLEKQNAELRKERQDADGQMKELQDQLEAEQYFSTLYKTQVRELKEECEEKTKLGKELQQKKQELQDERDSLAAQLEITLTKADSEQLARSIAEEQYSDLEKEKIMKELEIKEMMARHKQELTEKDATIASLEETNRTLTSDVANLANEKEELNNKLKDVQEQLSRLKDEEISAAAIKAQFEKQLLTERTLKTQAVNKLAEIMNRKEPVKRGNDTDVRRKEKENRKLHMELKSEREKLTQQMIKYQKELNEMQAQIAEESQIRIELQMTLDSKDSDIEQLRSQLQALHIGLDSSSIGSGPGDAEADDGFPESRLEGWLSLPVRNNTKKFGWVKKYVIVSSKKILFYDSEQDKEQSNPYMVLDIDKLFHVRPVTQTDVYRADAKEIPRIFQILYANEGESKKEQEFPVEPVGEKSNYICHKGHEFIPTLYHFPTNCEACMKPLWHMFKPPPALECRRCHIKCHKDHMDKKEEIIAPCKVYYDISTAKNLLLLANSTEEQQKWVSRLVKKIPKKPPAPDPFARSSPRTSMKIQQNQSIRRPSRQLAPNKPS
Description: The data in Table 2 were obtained at ATP concentration below those corresponding to Km.

ROCK1 = ROCK1 (Homo sapiens, UniProt Q13464); assay: IC50 determined at 10 μM ATP; format: biochemical; parameters: purchased Eurofins Testing (Dundee, Scotland, UK); conditions: 10 μM ATP (below Km)
Chain of ROCK1 (Q13464 whole entry): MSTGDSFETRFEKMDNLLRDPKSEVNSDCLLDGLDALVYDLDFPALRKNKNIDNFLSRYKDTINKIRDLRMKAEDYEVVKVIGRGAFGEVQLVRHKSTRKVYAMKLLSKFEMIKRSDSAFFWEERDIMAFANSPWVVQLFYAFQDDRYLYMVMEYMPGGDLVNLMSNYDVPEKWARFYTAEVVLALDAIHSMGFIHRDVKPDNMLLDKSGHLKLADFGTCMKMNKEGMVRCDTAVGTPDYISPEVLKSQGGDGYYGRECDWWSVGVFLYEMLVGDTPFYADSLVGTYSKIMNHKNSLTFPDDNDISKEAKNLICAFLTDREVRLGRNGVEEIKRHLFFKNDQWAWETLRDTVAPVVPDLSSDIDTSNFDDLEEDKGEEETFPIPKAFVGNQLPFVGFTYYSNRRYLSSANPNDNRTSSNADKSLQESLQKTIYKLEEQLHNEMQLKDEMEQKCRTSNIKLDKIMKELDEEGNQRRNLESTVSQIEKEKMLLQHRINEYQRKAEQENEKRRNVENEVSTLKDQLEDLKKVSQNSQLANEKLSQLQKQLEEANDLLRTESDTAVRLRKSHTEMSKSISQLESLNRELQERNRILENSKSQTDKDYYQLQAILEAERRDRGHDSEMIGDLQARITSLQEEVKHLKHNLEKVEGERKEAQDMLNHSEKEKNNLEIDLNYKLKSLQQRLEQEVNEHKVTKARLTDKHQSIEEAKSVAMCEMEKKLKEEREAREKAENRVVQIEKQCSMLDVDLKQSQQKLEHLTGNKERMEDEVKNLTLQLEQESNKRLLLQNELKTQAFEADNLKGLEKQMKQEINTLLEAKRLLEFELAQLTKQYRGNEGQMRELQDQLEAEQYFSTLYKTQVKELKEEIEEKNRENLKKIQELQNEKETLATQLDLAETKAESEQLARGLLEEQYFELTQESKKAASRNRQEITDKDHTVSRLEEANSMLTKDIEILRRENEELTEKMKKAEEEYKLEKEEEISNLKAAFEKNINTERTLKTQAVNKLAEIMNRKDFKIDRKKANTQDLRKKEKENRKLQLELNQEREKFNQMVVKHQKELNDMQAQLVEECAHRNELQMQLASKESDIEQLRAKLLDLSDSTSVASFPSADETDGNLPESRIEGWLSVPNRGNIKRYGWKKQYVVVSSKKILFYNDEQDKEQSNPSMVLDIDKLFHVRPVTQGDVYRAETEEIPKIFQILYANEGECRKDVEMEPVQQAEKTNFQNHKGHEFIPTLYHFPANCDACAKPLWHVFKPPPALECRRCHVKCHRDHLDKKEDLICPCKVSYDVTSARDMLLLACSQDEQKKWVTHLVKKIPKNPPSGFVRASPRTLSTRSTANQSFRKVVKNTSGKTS

SMILES: C[C@H](N)C1CCN(S(=O)(=O)c2cccc3c(=O)[nH]ccc23)CC1 [BA-2057]
- Penetration into ocular tissues [1]: penetrate the tissue of the eye, including the CNS tissue of the retina; also recorded: the metabolite is better able to penetrate the optic nerve
- Off-target hits in safety screen [2]: no significant off target hits were detected
- Safety Screen % inhibition SERT [3]: none
- Safety Screen % inhibition NET [4]: none
- Number of surviving TH-positive neurons [5]: dose-dependent increase in the number of surviving neurons
- Fibronectin levels (human TM cells): more potent in decreasing fibronectin deposition than BA-1076

SMILES: C[C@H](N)C1CCN(S(=O)(=O)c2cccc3cnccc23)CC1 [BA-1076]
- Inhibition of PKA (PKA): Neither compound inhibited PKA
- Penetration into ocular tissues [1]: penetrate the tissue of the eye, including the CNS tissue of the retina
- Binding to Abl (Abl): a second kinome screen did not confirm significant binding of BA-1076 to Abl
- Off-target hits in safety screen [2]: no significant off target hits were detected
- IC50 (ROCK2; 10 μM ATP (below Km), * = preliminary): 0.73 µM
- Fold-difference (ROCK2; ROCK1 vs ROCK2 IC50 at 10 μM ATP): 14
- Safety Screen % inhibition SERT [3]: none
- Safety Screen % inhibition NET [4]: none
- Number of surviving TH-positive neurons [5]: dose-dependent increase in the number of surviving neurons
- IC50 (ROCK1): 10 µM
- Fibronectin levels (human TM cells): Fibronectin levels decreased dose-dependently
